Reference: the supplement of paper PMC10307832

Tests used:
Assay in all cases: relative viability (nuclei count vs DMSO), 5 days (fraction); higher = more cells survive
R406 + Palbociclib = compound: COc1cc(Nc2ncc(F)c(Nc3ccc4c(n3)NC(=O)C(C)(C)O4)n2)cc(OC)c1OC [R406] + CC(=O)c1c(C)c2cnc(Nc3ccc(N4CCNCC4)cn3)nc2n(C2CCCC2)c1=O [Palbociclib] (partner 0.5 µM)
How it was run: (§1)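 Nuclei were stained with Hoechst during a one-step fixation (final 0.05% Triton X-100, 1% formaldehyde, 1 ug/ml Hoechst) carried out 5 days after dosing, then counted on 4× images. The cells, lung cancer lines in 1536-well plates, had been dosed by pin tool the day after seeding with one drug alone or a fixed anchor-drug dose plus five library-drug doses (not always all listed) in √10 steps. Relative viability is the nuclei count in treated wells divided by that in vehicle wells, and each value is the median of duplicate plates.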

R406 + Luminespib = compound: COc1cc(Nc2ncc(F)c(Nc3ccc4c(n3)NC(=O)C(C)(C)O4)n2)cc(OC)c1OC [R406] + CCNC(=O)c1noc(-c2cc(C(C)C)c(O)cc2O)c1-c1ccc(CN2CCOCC2)cc1 [Luminespib] (partner 0.01 µM)
How it was run: as §1

R406 + AZD7762 = compound: COc1cc(Nc2ncc(F)c(Nc3ccc4c(n3)NC(=O)C(C)(C)O4)n2)cc(OC)c1OC [R406] + NC(=O)Nc1cc(-c2cccc(F)c2)sc1C(=O)N[C@H]1CCCNC1 [AZD7762] (partner 0.2 µM)
How it was run: as §1

Daporinad + Palbociclib = compound: O=C(/C=C/c1cccnc1)NCCCCC1CCN(C(=O)c2ccccc2)CC1 [Daporinad] + CC(=O)c1c(C)c2cnc(Nc3ccc(N4CCNCC4)cn3)nc2n(C2CCCC2)c1=O [Palbociclib] (partner 0.5 µM)
How it was run: as §1

Cell Line | relative viability (R406 + Palbociclib; first compound 0.08 µM) | relative viability (R406 + Palbociclib; first compound 0.253 µM) | relative viability (R406 + Palbociclib; first compound 0.8 µM) | relative viability (R406 + Palbociclib; first compound 2.53 µM) | relative viability (R406 + Palbociclib; first compound 8 µM) | relative viability (R406 + Luminespib; first compound 0.08 µM) | relative viability (R406 + Luminespib; first compound 0.253 µM) | relative viability (R406 + Luminespib; first compound 0.8 µM) | relative viability (R406 + Luminespib; first compound 2.53 µM) | relative viability (R406 + Luminespib; first compound 8 µM) | relative viability (R406 + AZD7762; first compound 0.08 µM) | relative viability (R406 + AZD7762; first compound 0.253 µM) | relative viability (R406 + AZD7762; first compound 0.8 µM) | relative viability (R406 + AZD7762; first compound 2.53 µM) | relative viability (R406 + AZD7762; first compound 8 µM) | relative viability (Daporinad + Palbociclib; first compound 0.0005 µM) | relative viability (Daporinad + Palbociclib; first compound 0.001581 µM) | relative viability (Daporinad + Palbociclib; first compound 0.005 µM) | relative viability (Daporinad + Palbociclib; first compound 0.01581 µM)
HCC-44 | 0.945 | 0.982 | 0.858 | 1.02 | 1.16 | 0.975 | 0.911 | 1.2 | 0.458 | 0.274 | 0.974 | 1.01 | 0.995 | 1.03 | 1.18 | 0.97 | 0.988 | 1.04 | 0.963
HCC-827 | 0.508 | 0.538 | 0.517 | 0.422 | 0.373 | 0.772 | 0.385 | 0.563 | 0.334 | 0.195 | 0.336 | 0.239 | 0.234 | 0.176 | 0.134 | 0.419 | 0.486 | 0.5 | 0.435
NCI-H2342 | 0.518 | 0.508 | 0.504 | 0.474 | 0.509 | 0.757 | 0.811 | 0.819 | 0.581 | 0.76 | 0.505 | 0.53 | 0.476 | 0.433 | 0.392 | 0.513 | 0.506 | 0.506 | 0.535
NCI-H2347 | 0.423 | 0.415 | 0.453 | 0.446 | 0.406 | 0.521 | 0.16 | 0.553 | 0.307 | 0.272 | 0.785 | 0.81 | 0.776 | 0.422 | 0.529 | 0.447 | 0.447 | 0.419 | 0.384
PC-3 [JPC-3] | 0.518 | 0.591 | 0.582 | 0.549 | 0.45 | 0.743 | 0.708 | 0.903 | 0.485 | 0.509 | 0.817 | 0.819 | 0.923 | 0.684 | 0.381 | 0.548 | 0.54 | 0.535 | 0.553
NCI-H1651 | 0.496 | 0.578 | 0.531 | 0.511 | 0.527 | 1.07 | 1.2 | 1.02 | 0.647 | 0.793 | 0.432 | 0.544 | 0.513 | 0.396 | 0.446 | 0.537 | 0.528 | 0.5 | 0.522
HARA | 0.334 | 0.198 | 0.223 | 0.264 | 0.132 | 0.51 | 0.638 | 1.06 | 0.483 | 0.193 | 0.272 | 0.469 | 0.257 | 0.306 | 0.305 | 0.258 | 0.263 | 0.308 | 0.238
NCI-H1650 | 0.337 | 0.345 | 0.396 | 0.117 | 0.0985 | 0.185 | 0.196 | 0.194 | 0.184 | 0.182 |  |  |  |  |  | 0.321 | 0.413 | 0.415 | 0.334
NCI-H1395 | 0.609 | 0.663 | 0.652 | 0.47 | 0.551 | 0.502 | 0.725 | 0.71 | 0.466 | 0.355 | 0.427 | 0.354 | 0.351 | 0.417 | 0.36 | 0.659 | 0.618 | 0.531 | 0.718
NCI-H441 | 0.214 | 0.191 | 0.204 | 0.137 | 0.118 | 0.399 | 0.373 | 0.432 | 0.277 | 0.209 | 1.03 | 1.03 | 1.26 | 0.953 | 0.958 | 0.186 | 0.209 | 0.212 | 0.23
LU99A | 0.343 | 0.392 | 0.422 | 0.273 | 0.26 | 0.232 | 0.27 | 0.244 | 0.172 | 0.221 | 0.317 | 0.358 | 0.39 | 0.413 | 0.283 | 0.381 | 0.414 | 0.391 | 0.391
NCI-H1355 | 0.404 | 0.366 | 0.416 | 0.329 | 0.278 | 0.713 | 0.804 | 0.664 | 0.497 | 0.39 | 0.799 | 0.758 | 0.747 | 0.555 | 0.581 | 0.413 | 0.412 | 0.384 | 0.504
HCC-78 | 0.457 | 0.525 | 0.501 | 0.467 | 0.427 |  |  |  |  |  | 0.571 | 0.861 | 0.623 | 0.619 | 0.449 | 0.449 | 0.466 | 0.522 | 0.497
NCI-H1563 |  |  |  |  |  | 0.542 | 0.654 | 0.475 | 0.485 | 0.452 |  |  |  |  |  |  |  |  | 
HCC-15 | 0.818 | 0.827 | 0.801 | 0.728 | 0.594 | 0.289 | 0.518 | 0.295 | 0.298 | 0.465 | 1.35 | 1.33 | 1.38 | 1.19 | 0.751 | 0.692 | 0.815 | 0.829 | 0.755
EKVX | 0.362 | 0.417 | 0.373 | 0.333 | 0.315 | 0.863 | 0.885 | 1.06 | 0.702 | 0.74 | 0.679 | 0.832 | 0.847 | 0.647 | 0.521 | 0.435 | 0.379 | 0.423 | 0.465
NCI-H2087 | 0.231 | 0.26 | 0.26 | 0.23 | 0.243 | 0.209 | 0.123 | 0.162 |  | 0.124 | 1.36 | 1.47 | 1.33 | 1.06 | 1.25 | 0.215 | 0.242 | 0.224 | 0.243
LK-2 | 0.592 | 0.679 | 0.854 | 0.574 | 0.542 | 0.187 | 0.198 | 0.169 | 0.163 | 0.197 | 0.373 | 0.407 | 0.333 | 0.354 | 0.104 | 0.637 | 0.765 | 0.279 | 0.214
